This is an account of results in patent publication US20160166608A1, “METHODS OF TREATING CANCER WITH HIGH POTENCY LIPID-BASED PLATINUM COMPOUND FORMULATIONS ADMINISTERED INTRAPERITONEALLY” (Insmed Incorporated, priority 2005, published 2016).

The subject of the assay is L1210 cells. Kind of assay: Survival of DBA/2 mice with L1210 cells after a single ip bolus (Example 15). In kind it is in vivo, mouse. The following applies: 6 mg/kg single ip bolus on day 5; L1210, DBA/2 mice. As to the method:
DPPC (3.0 g) and cholesterol (1.2 g) were co-dissolved in 20 mL of ethanol. • 2.
The mice were given equivalent amounts of cisplatin containing therapeutics based on the amount of lipid instead of the amount of cisplatin.
Female DBA/2 mice (Charles Rivers) were used. Thirty (30) mice were injected with 2×10^6 L1210 cells ip on Day 0. On day 1, the mice were weighed and randomized into 3 groups of 10 mice. […] Survival was monitored. Mice were weighed daily after day 10. Mice that lost 20% or greater of their starting weight were euthanized by CO2 inhalation. The date of their death was recorded on data sheets. Median survival was calculated by Prism GraphPad.

Take `N.N.[Cl][Pt][Cl]` [cisplatin, cis-diamine-dichloroplatinum (II)]: the “days of median survival” value was determined as 19.5 days.
